Patent publication US20150342165A1, “HUMANIZED MOUSE AND METHODS OF USING THE SAME” (City of Hope, priority 2014, published 2015)
Where two headings read alike, the source gives them in different places.

Tested on: GM-HSPC and their progeny
Details: for Enrichment of frequency of CD45+/GFP+ cells in spleen and bone marrow: necropsy 11 weeks after transplantation
Method: All animals except control mice received 20 mg/kg O^6BG (Sigma-Aldrich, St. Louis, Mo.) followed by 5 mg/kg BCNU (Sigma-Aldrich, St. Louis, Mo.) mouse 1.5 hour later via IP injection. Drug doses were administered at either at the 7th and 8th or 7th, 8th, and 9th weeks post-transplantation. O^6BG was prepared in 35% PEG-400 (Sigma-Aldrich, St. Louis, Mo.) and 60% injectable saline.
Lentiviral vector was produced by calcium phosphate precipitation in HEK293T cells as previously described by Li M J et al. (2005). CD34+ cells were pre-stimulated overnight in SFT6. Lentiviral transduction was conducted at 1×10^6 cells/mL on Retronectin™ (Takara, Otsu-Shiga Japan)-coated non-tissue culture T-75 flask for 24 h in the presence of […] rapamycin (Sigma-Aldrich, St. Louis, Mo.). Lentivirus and rapamycin were removed and cells were washed once before being resuspended for transplantation in 0.9% NaCl saline solution with Fc/IL-7 as described above.
Mice were necropsied at 16 or 25 weeks post transplantation for analysis of engraftment. Single cell suspensions of bone marrow (femurs) and spleen were prepared by mechanical dissociation and red cells lysed using ACK lysis Buffer (Sigma-Aldrich, St. Louis, Mo.). All cell suspensions were pre-treated with human immunoglobulin (GammaGard, Baxter Healthcare Corp. Deerfield, Ill.) for 30 minutes to block nonspecific antibody staining. Cell suspensions were stained with a human pan-leukocyte antibody to CD45-PC5 (BioLegendR, San Diego, Calif.), and lineage specific antihuman, CD3-ECD, CD4-APC, CD14-APC-Alexa-750, CD19-PE (Invitrogen, Carlsbad, Calif.), and CD8β-PC5 (Beckman Coulter, Brea, Calif.), for 20 minutes and washed 2 times with 1 mL of PBS containing 0.1% BSA (Sigma-Aldrich, St Louis, Mo.). BM cells were stained with antibodies to human CD45-PC5, CD34-PC7, CD45-ECD (Beckman Coulter, Brea, Calif.), CD33-PC5 (BD Biosciences, San Diego, Calif.), CD19-PE, and CD14-APC-Alexa750 (Invitrogen, Carlsbad, Calif.) for 20 minutes and washed 2 times with 1 mL of PBS containing 0.1% BSA. To establish analytical gates and background staining, bone marrow and spleen samples from 2-3 mice that received no human cells mice were stained with the same antibody panel. Samples were analyzed using a Gallios flow cytometer (Beckman Coulter, Hialeah, Fla.) and data analyzed with FCS Express software (De Novo Software, Los Angeles, Calif.).
Lentiviral vectors expressing unique combinations of small anti-HIV RNAs expressed from a naturally occurring micro RNA cluster (MCM-7) are known. See Chung J, et al. Endogenous MCMI microRNA cluster as a novel platform to multiplex small interfering and nucleolar RNAs for combinational HIV-1 gene therapy. Human gene therapy. 2012; 23:1200-1208. […] CD34+ HSPC were transduced with this vector and used to transplant NSG mice as described in materials and methods. Animals were treated with O^6BG and BCNU at weeks 7 and 8 (2× treatment) or weeks 7, 8 and 9 (3× treatment) following transplantation. Two weeks later (11 weeks following transplantation) animals were necropsied and the level of engraftment of the spleen and bone marrow were determined.

[1] = second experiment, different donor, 7 weeks recovery with weekly Fc/IL-7

Substance: O^6-benzylguanine; bis-chloronitrosourea [O^6BG/BCNU]
- Enrichment in GM progeny in bone marrow and spleen (2-3 rounds of treatment): 4-8 fold
- Engraftment of spleen and bone marrow with human cells relative to untreated control (2× and 3× treated animals, p<0.0001): reduced
- Enrichment of frequency of CD45+/GFP+ cells in spleen and bone marrow (2× treatment (weeks 7 and 8)): 10 fold
- Enrichment of frequency of CD45+/GFP+ cells in spleen and bone marrow (3× treatment (weeks 7, 8 and 9)): 15 fold
- CD45+ cells in bone marrow and spleen [1]: depletion
- Enrichment of CD3+/CD4+/GFP+ T-cells [1]: no significant enrichment
- Frequency of CD45+/GFP+ human cells and CD14+/CD4+/GFP+ monocytes [1]: concomitant increase
- Increase of CD4+/CD14+/GFP+ monocytes in the spleens (three treatments): 3 fold
- Increase of average frequency of CD3+/CD4+ T-cells in the spleen (treatment performed three times): 3 fold
